Where “and” joins values, the source holds several entries; their conditions need not be identical. Identical values can stand only once.
Tests used:
Caco-2 cell monolayers = experiment: Bidirectional (AP→BL, BL→AP) drug transport across Caco-2 cell monolayers in transwells: cumulative transport, Papp, efflux ratio; HPLC or radiolabeled assay; conditions: for Basal to apical transport (cumulative, receiver): individual samples 1-3; for PappAB / PappBA: individual samples; for Apical to basal transport / Basal to apical transport: samples 1-3
Experimental: (§1) The monolayers used were of between passage 20 and 65 after 15 days of growth. Each experiment was performed in duplicate using two six well-transwell culture plates. The cells were trypsinized as described earlier, and after centrifugation the pellet re-suspended in fresh DMEM (+15%), and the cells counted using a cell counter. A volume of DMEM was added enough to give a cell count of 2 × 10^6 cells per ml, and cells were seeded on the transwell culture plates at a density of 2 × 10^4 cells/cm^2 (~ 100,000 cells per well, since insert membrane growth area = 4.67 cm^2). The plates were then incubated at 37°C and 10% CO2 in a humidified chamber and the media changed every 2-3 days, by aspirating using a suction pump and replacing with an equal volume of DMEM. Transport experiments were conducted 15 to 20 days after seeding. The TEER across the cell monolayers was monitored using a Millicell-ERS in order to assess cell monolayer integrity and the monolayers considered appropriate for the experiment when the TEER values were typically above 500 cm^2 [49, 70].
(§2) Prior to transport studies, each monolayer was washed and equilibrated with the transport medium (DMEM without FBS). The medium was removed from all AP and BL compartments of the transwells and replaced with 2 ml of the transport medium (DMEM alone), to both compartments and equilibrated for 1 h (37°C, 10% CO2 incubator), after which the TEER was re-assessed and labeled. The medium was then removed from both compartments and replaced with an equal volume of pre-warmed medium containing the compound of interest at the appropriate concentration. For the AP → BL transport, 2 ml of medium containing the desired drug was placed in the AP chamber and 2 ml of the medium alone in the BL chamber, whereas 2 ml of medium containing the drug was placed in the BL and 2 ml of medium on the AP chamber for the BL → AP transport [71]. The effect of the second drug was then assessed by adding the medium containing the original drug and the drug under study to the AP side for AP → BL transport with the medium containing the original drug alone in the BL chamber, and vice-versa for the BL → AP transport. Transport in each direction was done in triplicate. The transwell plates were then incubated (37°C, 10% CO2 incubator), and 100μl of the samples from the AP and BL compartments were taken at 60, 120, 180 and 240 min and quantified either by HPLC method described earlier [45], or by the use of a liquid scintillating counter depending on the drug under study. The HPLC method involved liquid - liquid extraction followed by ultra-high performance liquid chromatography using a Hypurity C18 column and ultraviolet detection set at a wavelength of 215 nm. The mobile phase consisted of ammonium formate, acetonitrile and methanol (57:38:5 v/v). Separation was facilitated via isocratic elution at a flow rate of 1.5 ml/min. For HPLC assays, the concentration used for each drug was 20μg/ml. The concentrations that offered the best detection were selected for radiolabeled assay. […] The integrity of the CCM during the experiment was monitored by measuring the TEER at the beginning (0 min) and the end of the experiment (240min).
(§3) The results were expressed as apparent permeability coefficient (Papp, unit: cms^-1), the amount of compound transported per second. Papp values were calculated for both AP to BL (PappAtoB), and BL to AP (PappBtoA) movement of the compound. Papp was calculated using the following equation [52, 72]: • Papp (cm/s) = (dQ/dt) x (1/(ACO) • dQ/dt = Steady-state flux (dpm s^-1 or μmol s^-1) • A = Surface area of the filter (cm^2) • CO = Initial concentration in the donor chamber (dpm litre ^-1 or μM)
(§4) The quotient of secretory permeability and absorptive permeability (PappBL-AP/PappAP-BL) constitutes the efflux ratio, while the reverse (PappAP-BL/PappBL-AP) is the uptake ratio [71].

in vitro = conditions: human, Mean
Experimental: as §1, §2, §3, §4

P-gp = conditions: CEM parental and CEMVBL cells; cited from earlier work
[1] = PZQ alone (EFV experiment), 60 min
[2] = PZQ alone (EFV experiment), 120 min, mean
[3] = PZQ alone (EFV experiment), 120 min
[4] = PZQ alone (EFV experiment), 180 min, mean
[5] = PZQ alone (EFV experiment), 180 min
[6] = PZQ alone (EFV experiment), 240 min, mean
[7] = PZQ alone (EFV experiment), 240 min
[8] = PZQ alone (NVP experiment), 60 min, mean
[9] = PZQ alone (NVP experiment), 60 min
[10] = PZQ alone (NVP experiment), 120 min, mean
[11] = PZQ alone (NVP experiment), 120 min
[12] = PZQ alone (NVP experiment), 180 min, mean
[13] = PZQ alone (NVP experiment), 180 min
[14] = PZQ alone (NVP experiment), 240 min, mean
[15] = PZQ alone (NVP experiment), 240 min
[16] = PZQ alone (SQV experiment), 60 min, mean
[17] = PZQ alone (SQV experiment), 60 min
[18] = PZQ alone (SQV experiment), 120 min, mean
[19] = PZQ alone (SQV experiment), 120 min
[20] = PZQ alone (SQV experiment), 180 min, mean
[21] = PZQ alone (SQV experiment), 180 min
[22] = PZQ alone (SQV experiment), 240 min, mean
[23] = PZQ alone (SQV experiment), 240 min
[24] = PZQ alone (SQV experiment), after 60min
[25] = PZQ alone (SQV experiment), after 60min, mean
[26] = labelled drug is the interacting drug

O=C(C1CCCCC1)N1CC(=O)N2CCc3ccccc3C2C1 (centres unmarked) [PZQ, praziquantel]
Basal to apical transport (cumulative, receiver) (Caco-2 cell monolayers; 60 min): 16.40 pmol and 16.26 pmol and 17.14 pmol | Apical to basal transport (cumulative, receiver), Mean (Caco-2 cell monolayers; 60 min, mean n=3): 15.06 pmol | Basal to apical transport (cumulative, receiver), Mean (Caco-2 cell monolayers; 60 min, mean n=3): 16.60 pmol | PappAB (Caco-2 cell monolayers; 3600 sec): 899 nm/s and 625 nm/s and 768 nm/s | PappBA (Caco-2 cell monolayers; 3600 sec): 846 nm/s and 775 nm/s and 954 nm/s | PappAB Mean (Caco-2 cell monolayers; 3600 sec, mean n=3): 764 nm/s | PappBA Mean (Caco-2 cell monolayers; 3600 sec, mean n=3): 858 nm/s | Basal to apical transport (cumulative, receiver) (Caco-2 cell monolayers; 120 min): 20.68 pmol and 19.96 pmol and 21.78 pmol | Apical to basal transport (cumulative, receiver), Mean (Caco-2 cell monolayers; 120 min, mean n=3): 22.74 pmol | Basal to apical transport (cumulative, receiver), Mean (Caco-2 cell monolayers; 120 min, mean n=3): 20.81 pmol | PappAB (Caco-2 cell monolayers; 7200 sec): 655 nm/s and 657 nm/s and 602 nm/s | PappBA (Caco-2 cell monolayers; 7200 sec): 562 nm/s and 579 nm/s and 575 nm/s | Basal to apical transport (cumulative, receiver) (Caco-2 cell monolayers; 180 min): 26.18 pmol and 23.22 pmol | Apical to basal transport (cumulative, receiver), Mean (Caco-2 cell monolayers; 180 min, mean n=3): 27.30 pmol | Basal to apical transport (cumulative, receiver), Mean (Caco-2 cell monolayers; 180 min, mean n=3): 23.94 pmol | PappAB (Caco-2 cell monolayers; 10800 sec): 583 nm/s and 516 nm/s and 632 nm/s | PappBA (Caco-2 cell monolayers; 10800 sec): 566 nm/s and 411 nm/s and 460 nm/s | Basal to apical transport (cumulative, receiver) (Caco-2 cell monolayers; 240 min): 26.24 pmol and 28.48 pmol and 32.82 pmol | Apical to basal transport (cumulative, receiver), Mean (Caco-2 cell monolayers; 240 min, mean n=3): 32.95 pmol | Basal to apical transport (cumulative, receiver), Mean (Caco-2 cell monolayers; 240 min, mean n=3): 29.18 pmol | PappAB (Caco-2 cell monolayers; 14400 sec): 544 nm/s and 520 nm/s and 555 nm/s | PappBA (Caco-2 cell monolayers; 14400 sec): 501 nm/s and 433 nm/s and 554 nm/s | Basal to apical transport Mean (Caco-2 cell monolayers; PZQ alone (EFV experiment), 60 min, mean): 26.40 pmol | Apical to basal transport (Caco-2 cell monolayers; [1]): 33.50 pmol and 22.28 pmol and 39.18 pmol | Basal to apical transport (Caco-2 cell monolayers; [1]): 25.94 pmol and 27.98 pmol and 25.28 pmol | Apical to basal transport Mean (Caco-2 cell monolayers; [2]): 37.71 pmol | Basal to apical transport Mean (Caco-2 cell monolayers; [2]): 46.61 pmol | Apical to basal transport (Caco-2 cell monolayers; [3]): 45.74 pmol and 32.50 pmol and 34.88 pmol | Basal to apical transport (Caco-2 cell monolayers; [3]): 49.34 pmol and 35.84 pmol and 54.66 pmol | Apical to basal transport Mean (Caco-2 cell monolayers; [4]): 54.47 pmol | Basal to apical transport Mean (Caco-2 cell monolayers; [4]): 58.63 pmol | Apical to basal transport (Caco-2 cell monolayers; [5]): 46.84 pmol and 53.00 pmol and 63.58 pmol | Basal to apical transport (Caco-2 cell monolayers; [5]): 53.14 pmol and 51.00 pmol and 71.74 pmol | Apical to basal transport Mean (Caco-2 cell monolayers; [6]): 71.45 pmol | Basal to apical transport Mean (Caco-2 cell monolayers; [6]): 67.31 pmol | Apical to basal transport (Caco-2 cell monolayers; [7]): 50.62 pmol and 68.96 pmol and 94.76 pmol | Basal to apical transport (Caco-2 cell monolayers; [7]): 74.78 pmol and 75.20 pmol | Apical to basal transport Mean (Caco-2 cell monolayers; [8]): 23.43 pmol | Basal to apical transport Mean (Caco-2 cell monolayers; [8]): 25.07 pmol | Apical to basal transport (Caco-2 cell monolayers; [9]): 22.50 pmol and 22.28 pmol and 25.50 pmol | Basal to apical transport (Caco-2 cell monolayers; [9]): 23.94 pmol and 25.98 pmol and 25.28 pmol | Apical to basal transport Mean (Caco-2 cell monolayers; [10]): 39.93 pmol | Basal to apical transport Mean (Caco-2 cell monolayers; [10]): 49.95 pmol | Apical to basal transport (Caco-2 cell monolayers; [11]): 34.88 pmol and 39.18 pmol and 45.74 pmol | Basal to apical transport (Caco-2 cell monolayers; [11]): 49.34 pmol and 45.84 pmol and 54.66 pmol | Apical to basal transport Mean (Caco-2 cell monolayers; [12]): 50.15 pmol | Basal to apical transport Mean (Caco-2 cell monolayers; [12]): 54.69 pmol | Apical to basal transport (Caco-2 cell monolayers; [13]): 46.84 pmol and 53.00 pmol and 50.62 pmol | Basal to apical transport (Caco-2 cell monolayers; [13]): 53.14 pmol and 59.00 pmol | Apical to basal transport Mean (Caco-2 cell monolayers; [14]): 69.10 pmol | Basal to apical transport Mean (Caco-2 cell monolayers; [14]): 73.24 pmol | Apical to basal transport (Caco-2 cell monolayers; [15]): 63.58 pmol and 68.96 pmol and 74.76 pmol | Basal to apical transport (Caco-2 cell monolayers; [15]): 65.74 pmol and 78.78 pmol and 75.20 pmol | Apical to basal transport Mean (Caco-2 cell monolayers; [16]): 15.06 pmol | Basal to apical transport Mean (Caco-2 cell monolayers; [16]): 16.60 pmol | Apical to basal transport (Caco-2 cell monolayers; [17]): 16.68 pmol and 13.02 pmol and 15.48 pmol | Basal to apical transport (Caco-2 cell monolayers; [17]): 16.40 pmol and 16.26 pmol and 17.14 pmol | Apical to basal transport Mean (Caco-2 cell monolayers; [18]): 22.74 pmol | Basal to apical transport Mean (Caco-2 cell monolayers; [18]): 20.81 pmol | Apical to basal transport (Caco-2 cell monolayers; [19]): 22.40 pmol and 22.80 pmol and 23.02 pmol | Basal to apical transport (Caco-2 cell monolayers; [19]): 19.96 pmol and 21.78 pmol and 20.68 pmol | Apical to basal transport Mean (Caco-2 cell monolayers; [20]): 27.30 pmol | Basal to apical transport Mean (Caco-2 cell monolayers; [20]): 23.94 pmol | Apical to basal transport (Caco-2 cell monolayers; [21]): 28.02 pmol | Basal to apical transport (Caco-2 cell monolayers; [21]): 26.18 pmol and 23.22 pmol | Apical to basal transport Mean (Caco-2 cell monolayers; [22]): 32.95 pmol | Basal to apical transport Mean (Caco-2 cell monolayers; [22]): 29.18 pmol | Apical to basal transport (Caco-2 cell monolayers; [23]): 30.94 pmol and 32.48 pmol and 35.44 pmol | Basal to apical transport (Caco-2 cell monolayers; [23]): 26.24 pmol and 28.48 pmol and 32.82 pmol | PappAB (Caco-2 cell monolayers; [24]): 89.9 nm/s and 62.5 nm/s and 76.8 nm/s | PappBA (Caco-2 cell monolayers; [24]): 84.6 nm/s and 77.5 nm/s and 95.4 nm/s | PappAB Mean (Caco-2 cell monolayers; [25]): 76.4 nm/s | PappBA Mean (Caco-2 cell monolayers; [25]): 85.8 nm/s | PappAB (Caco-2 cell monolayers; PZQ alone, MOESM4): 899 nm/s and 625 nm/s and 768 nm/s | PappBA (Caco-2 cell monolayers; PZQ alone, MOESM4): 846 nm/s and 775 nm/s and 954 nm/s | ER Mean (Caco-2 cell monolayers; PZQ alone, mean, MOESM4): 1.14 | PappAB Mean (x10^6) (Caco-2 cell monolayers; PZQ alone, mean, MOESM4): 7.64 x10^6 cm/s | Effect on the (efflux) transport of SQV (Caco-2 cell monolayers; [26]): did not alter | Effect on the transport of ARVs (Caco-2 cell monolayers; [26]): did not appear to significantly influence | Papp A→B at 7200 sec (in vitro; Caco-2, PappAB): 638 nm/s | Papp A→B at 10800 sec (in vitro; Caco-2, PappAB): 577 nm/s | Papp A→B at 14400 sec (in vitro; Caco-2, PappAB): 539 nm/s | Papp B→A at 7200 sec (in vitro; Caco-2, PappBA): 572 nm/s | Papp B→A at 10800 sec (in vitro; Caco-2, PappBA): 479 nm/s | Papp B→A at 14400 sec (in vitro; Caco-2, PappBA): 496 nm/s | P-gp substrate / inhibitor status (P-gp): neither a substrate nor an inhibitor of P-gp

Source: paper PMC5415745, “Drug-transporter mediated interactions between anthelminthic and antiretroviral drugs across the Caco-2 cell monolayers” (BMC Pharmacology & Toxicology, 2017)
